Values quoted from earlier work in patent publication US20220400668A1, “MICROEMULSION COMPOSITIONS OF TOPRAMEZONE” (BASF SE, priority 2018, published 2022).

Details: 25° C.

With `Cc1c(C(=O)c2cnn(C)c2O)ccc(S(C)(=O)=O)c1C1=NOCC1` [topramezone, 4-[3-(4,5-dihydro-1,2-oxazol-3-yl)-2-methyl-4-methylsulfonylbenzoyl]-2-methyl-1H-pyrazol-3-one] as the molecule, how does the solubility in water read?
Its solubility in water is “about 0.305 g/L”.
